Results from patent US20100189648A1, “INHIBITORS FOR DISRUPTING THE INTERACTION OF UBIQUITINATION RELATED ENZYMES AND USES THEREOF” (priority 2006, published 2010).
Converted amounts (≈) assume the structure as drawn. “And” between values parts separate entries of the source, which are not always exact repeats. Equal entries are not always repeated. Where two headings read alike, the source gives them in different places.

Legend:
Format in all cases: cell-based, human
[1] = tested on: Hela cells; experiment: MTT survival assay, cervical cancer line (Hela cells); details: for IC50: Homo sapiens
How it was run: (§1)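 Read-out: A570 of DMSO-solubilized formazan after 4 h with 1 mg/ml MTT. Preceding step: 68 h compound exposure at 37 C of cells plated a day earlier in 10% FBS medium. Growth inhibition rate relative to negative control; IC50 (95% confidence) via Bliss.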

[2] = tested on: HCT116; experiment: MTT survival assay, colon cancer cell line (HCT116); details: for IC50: Homo sapiens
Procedure: The effect of the above identified compounds on anti-tumor activity in human carcinoma cells was determined by the MTT survival assay. The MTT assay is a commonly used method in evaluation of cell survival, based on the ability of viable cells to convert MTT (MTT, Sigma, Cat No. 044K5307), a soluble tetrazolium salt [3-(4,5-dimethylthuazole-2-yl)-2,5 diphenyl tetrazolium bromide], into an insoluble formazan precipitate, which is quantitated by spectrophotometry following solubilization in dimethyl sulfoxide (DMSO).
In brief, different carcinoma cells were treated with negative control, various test articles at different concentration, and positive control (DDP), in 96-well tissue culture dishes. Each test article at different concentration is repeated 3 times.
Different carcinoma cells were diluted with 10% FBS and RPM1640 or MEM media to a concentration of 3-5×10^4 per ml suspension. 100 microliter of cells were incubated in each well in 96-well tissue culture dishes at 37 C. The cells were incubated at 37 C on the first day. On the second day, media supernatant was removed and replaced with media and different concentration of test articles (100 microliter in each well). Three Negative control wells and three positive control (DDP) wells were also included. The 96-well plate were incubated at 37 C for another 68 hours. After 68 hours, supernatant of each well was removed. 100 microliter of 1 mg/ml MTT diluted in PBS was injected into each well. The cells were incubated at 37 C for another 4 hours. The cells were then solubilized in 150 microliter DMSO, mixed for 10 minutes and absorbance readings were taken using Microplate reader Bio-Rad Model 550 at 570 nm. IR (cell growth inhibition rate) % was calculated as (OD570 of negative control-OD570 with test article)/OD570 of negative control. IC50 (cell 50% inhibition concentration) at 95% confidence level was calculated with Bliss method.

[3] = tested on: SKOV3; experiment: MTT survival assay, ovarian cancer cell line (SKOV3); details: SKOV3 (second table)
How it was run: as §1

[4] = tested on: MCF-7; experiment: MTT survival assay, breast cancer cell line (MCF-7); details: for IC50: Homo sapiens
How it was run: as §1

[5] = tested on: SMMC-7721; experiment: MTT survival assay, liver cancer cell line (SMMC-7721); details: SMMC-7721 Experiment #2; for IC50: Homo sapiens
How it was run: as §1

[6] = tested on: U251; experiment: MTT survival assay, glioma cell line (brain tumor U251); details: U251 (second table)
How it was run: as §1

[7] = tested on: A459; experiment: MTT survival assay, lung cancer cell line (A459); details: A459 Experiment #2; for IC50: Homo sapiens
How it was run: as §1

[8] = 95% confidence limits of IC50, read-out: IC50 (95% confidence level), interval
[9] = Bliss method, unit not printed (concentrations in μg/ml), read-out: IC50 (95% confidence level)

For `O=C(CSc1cc(COc2ccc(Br)cc2)[nH]n1)c1ccccc1` [Mol 21], the “IR (%)” value ([1]; 0.41 μg/ml) was 10.0%, the “OD(A570 nm)” value ([1]; 0.41 μg/ml) was 0.668 ± 0.049 and the “OD(A570 nm)” value ([1]; 1.23 μg/ml) was 0.785 ± 0.081. The “OD(A570 nm)” value ([1]; 3.70 μg/ml) was 0.774 ± 0.066, the “IR (%)” value ([1]; 11.11 μg/ml) was 35.4% and the “OD(A570 nm)” value ([1]; 11.11 μg/ml) was 0.480 ± 0.035. For the same compound, the “IR (%)” value ([1]; 33.33 μg/ml) was 73.8%, the “OD(A570 nm)” value ([1]; 33.33 μg/ml) was 0.194 ± 0.031 and the “IR (%)” value ([1]; 100 μg/ml) was 82.5%. The “OD(A570 nm)” value ([1]; 100 μg/ml) was 0.130 ± 0.039, the IC50 [1, 8] was 18.8 to 26.4 µg/mL (≈ 46.6 to 65.6 µM) and the IC50 [1, 9] was 22.2 µg/mL (≈ 55.1 µM). The “IR (%)” value ([2]; 3.125 μg/ml) was 56.2% and 30.4%, the “OD(A570 nm)” value ([2]; 6.25 μg/ml) was 0.300 ± 0.050 and 0.394 ± 0.039 and the “OD(A570 nm)” value ([2]; 12.5 μg/ml) was 0.150 ± 0.025 and 0.267 ± 0.035. For the same compound, the “IR (%)” value ([2]; 25 μg/ml) was 80.0% and 81.3%, the “OD(A570 nm)” value ([2]; 25 μg/ml) was 0.109 ± 0.006 and 0.101 ± 0.020 and the “OD(A570 nm)” value ([2]; 50 μg/ml) was 0.083 ± 0.011 and 0.085 ± 0.004. The “IR (%)” value ([2]; 100 μg/ml) was 84.1% and 84.7%, the “OD(A570 nm)” value ([2]; 100 μg/ml) was 0.086 ± 0.012 and 0.083 ± 0.001 and the IC50 ([2]; HCT-116, 95% confidence limits of IC50, read-out: IC50 (95% confidence level), interval) was 2.99 to 3.33 µg/mL (≈ 7.42 to 8.26 µM). For the same compound, the IC50 ([2]; HCT-116, Bliss method, unit not printed (concentrations in μg/ml), read-out: IC50 (95% confidence level)) was 3.16 µg/mL (≈ 7.84 µM), the IC50 ([3]; Homo sapiens, SK-OV-3, Bliss method, unit not printed (concentrations in μg/ml), read-out: IC50 (95% confidence level)) was 17.7 µg/mL (≈ 43.9 µM) and the “IR (%)” value ([3]; 3.125 μg/ml) was 28.2%. The “OD(A570 nm)” value ([3]; 3.125 μg/ml) was 0.503 ± 0.031, the “IR (%)” value ([3]; 6.25 μg/ml) was 24.1% and the “OD(A570 nm)” value ([3]; 6.25 μg/ml) was 0.532 ± 0.025. The “IR (%)” value ([3]; 12.5 μg/ml) was 34.3%, the “OD(A570 nm)” value ([3]; 12.5 μg/ml) was 0.460 ± 0.195 and the “IR (%)” value ([3]; 25 μg/ml) was 38.8%. The “OD(A570 nm)” value ([3]; 25 μg/ml) was 0.429 ± 0.002, the “IR (%)” value ([3]; 50 μg/ml) was 83.0% and the “OD(A570 nm)” value ([3]; 50 μg/ml) was 0.119 ± 0.010. The “IR (%)” value ([3]; 100 μg/ml) was 89.1%, the “OD(A570 nm)” value ([3]; 100 μg/ml) was 0.077 ± 0.011 and the “IR (%)” value ([4]; 3.125 μg/ml) was 12.5%. For the same compound, the “OD(A570 nm)” value ([4]; 3.125 μg/ml) was 0.789 ± 0.064, the “IR (%)” value ([4]; 6.25 μg/ml) was 30.9% and the “OD(A570 nm)” value ([4]; 6.25 μg/ml) was 0.624 ± 0.008. The “IR (%)” value ([4]; 12.5 μg/ml) was 61.6%, the “OD(A570 nm)” value ([4]; 12.5 μg/ml) was 0.346 ± 0.022 and the “IR (%)” value ([4]; 25 μg/ml) was 89.1%. The “OD(A570 nm)” value ([4]; 25 μg/ml) was 0.098 ± 0.006, the “IR (%)” value ([4]; 50 μg/ml) was 92.4% and the “OD(A570 nm)” value ([4]; 50 μg/ml) was 0.069 ± 0.006. For the same compound, the “IR (%)” value ([4]; 100 μg/ml) was 92.1%, the “OD(A570 nm)” value ([4]; 100 μg/ml) was 0.072 ± 0.007 and the IC50 ([4]; MCF7, 95% confidence limits of IC50, read-out: IC50 (95% confidence level), interval) was 8.53 to 11.4 µg/mL (≈ 21.2 to 28.4 µM). It also gave an IC50 ([4]; MCF7, Bliss method, unit not printed (concentrations in μg/ml), read-out: IC50 (95% confidence level)) of 9.93 µg/mL (≈ 24.6 µM), an IC50 [5, 8] of 9.32 to 9.71 µg/mL (≈ 23.1 to 24.1 µM) and an IC50 [5, 9] of 9.52 µg/mL (≈ 23.6 µM). The “IR (%)” value ([5]; 3.125 μg/ml) was −49.9%, the “OD(A570 nm)” value ([5]; 3.125 μg/ml) was 0.690 ± 0.603 and the “IR (%)” value ([5]; 6.25 μg/ml) was 65.1%. The “OD(A570 nm)” value ([5]; 6.25 μg/ml) was 0.161 ± 0.085, the “IR (%)” value ([5]; 12.5 μg/ml) was 68.3% and the “OD(A570 nm)” value ([5]; 12.5 μg/ml) was 0.146 ± 0.041. For the same compound, the “IR (%)” value ([5]; 25 μg/ml) was 72.0%, the “OD(A570 nm)” value ([5]; 25 μg/ml) was 0.129 ± 0.006 and the “IR (%)” value ([5]; 50 μg/ml) was 82.9%. The “OD(A570 nm)” value ([5]; 50 μg/ml) was 0.079 ± 0.005, the “IR (%)” value ([5]; 100 μg/ml) was 83.2% and the “OD(A570 nm)” value ([5]; 100 μg/ml) was 0.077 ± 0.009. For the same compound, the IC50 ([6]; Homo sapiens, U-251, Bliss method, unit not printed (concentrations in μg/ml), read-out: IC50 (95% confidence level)) was 16.2 µg/mL (≈ 40.3 µM), the “IR (%)” value ([6]; 3.125 μg/ml) was 4.2% and the “OD(A570 nm)” value ([6]; 3.125 μg/ml) was 0.840 ± 0.013. The “IR (%)” value ([6]; 6.25 μg/ml) was 18.0%, the “OD(A570 nm)” value ([6]; 6.25 μg/ml) was 0.719 ± 0.110 and the “IR (%)” value ([6]; 12.5 μg/ml) was 42.8%. For the same compound, the “OD(A570 nm)” value ([6]; 12.5 μg/ml) was 0.501 ± 0.058, the “IR (%)” value ([6]; 25 μg/ml) was 73.5% and the “OD(A570 nm)” value ([6]; 25 μg/ml) was 0.232 ± 0.034. For the same compound, the “IR (%)” value ([6]; 50 μg/ml) was 86.2%, the “OD(A570 nm)” value ([6]; 50 μg/ml) was 0.121 ± 0.019 and the “IR (%)” value ([6]; 100 μg/ml) was 89.2%. For the same compound, the “OD(A570 nm)” value ([6]; 100 μg/ml) was 0.094 ± 0.007, the “IR (%)” value ([7]; 3.125 μg/ml) was −0.7% and the “OD(A570 nm)” value ([7]; 3.125 μg/ml) was 0.642 ± 0.073. The “IR (%)” value ([7]; 6.25 μg/ml) was −3.9%, the “OD(A570 nm)” value ([7]; 6.25 μg/ml) was 0.662 ± 0.031 and the “IR (%)” value ([7]; 12.5 μg/ml) was 56.2%. The “OD(A570 nm)” value ([7]; 12.5 μg/ml) was 0.279 ± 0.014, the “IR (%)” value ([7]; 25 μg/ml) was 81.5% and the “OD(A570 nm)” value ([7]; 25 μg/ml) was 0.118 ± 0.027. For the same compound, the “IR (%)” value ([7]; 50 μg/ml) was 89.2%, the “OD(A570 nm)” value ([7]; 50 μg/ml) was 0.069 ± 0.010 and the “IR (%)” value ([7]; 100 μg/ml) was 87.1%. The “OD(A570 nm)” value ([7]; 100 μg/ml) was 0.082 ± 0.015, the IC50 [7, 8] was 6.3 to 7.13 µg/mL (≈ 15.6 to 17.7 µM) and the IC50 [7, 9] was 6.72 µg/mL (≈ 16.7 µM).
